Like-named read-outs stand apart in the source and are kept apart here.
Columns and labels:
[1] = system: CM engrafted zebrafish embryos; test: Maximum tolerated dose in CM engrafted zebrafish embryos (ectopic and orthotopic model); type: in vivo, Zebrafish (Danio rerio); settings: light-activated
Experimental: To engage both CM models for testing the efficacy of TLD1433 as a potential new PDT treatment strategy to combat CM growth, first, the MTD of TLD1433 delivered into zebrafish embryos engrafted with CM cells was measured (Table 2) following the same procedure as already described for wild type embryos (Figure 5 and Table 2). Engrafted embryos were more sensitive to light-activated TLD1433 than non-engrafted embryos (Table 2). MTD concentrations of 4.6 nM and 2.3 mM were delivered by WA, IV and RO administration. […] The TLD1433 concentration in these experiments was not increased further as the initial treatment was already at the pre-determined MTD.
For determining the MTD of the WA of the TLD1433 solution in wild type zebrafish, solutions of 2.3 nM, 4.6 nM, 9.2 nM, 11.5 nM, 23 nM were made before the experiment. At 2.5, 3.5, 4.5, 5.5 dpf, TLD1433 was added to the fish water and maintained for 12 h. At 3, 4, 5, 6 dpf, the fish water was refreshed and after 1 h, embryos were exposed to green light for 90 min (520 nm, 21 mW/cm^2, 114 J/cm^2). For the IV and RO administration, TLD1433 solutions (1.15 mM, 2.3 mM, 4.6 mM, 9.2 mM, 11.5 mM) were prepared before the experiment. At 3, 4, 5, 6 dpf, 1nL of TLD1433 was injected via the dorsal vein or the RO site and maintained for 1 h. After each of the 4 injections, the embryos were exposed to green light for 90 min (520 nm, 21 mW/cm^2, 114 J/cm^2). The images of treated and wild type embryos at 6 dpf were taken using a DFC420C camera coupled to a Leica MZ16FA fluorescence microscope. In order to determine the MTD of tumour cell bearing zebrafish, TLD1433 was performed according to the same procedure, delivered by WA, IV and […] administration as described above for the wild type embryos.

[2] = system: MEL270 uveal melanoma cell line; test: SRB cell viability assay, MEL270; type: cell-based, Human
Experimental: TLD1433 is known to generate reactive oxygen species (ROS) with high quantum efficacy in many cancer cell lines. However, there is no report of the in vitro toxicity of this compound in eye melanoma (UM) cell lines. We determined the cell viability of three conjunctival melanoma cell lines (CRMM1, CRMM2 and CM2005.1), and three uveal melanoma cell lines (OMM1, OMM2.5, MEL270) in the presence of TLD1433, both in the dark or under green light irradiation (21 mW/cm^2, 19 J/cm^2, 520 nm, 15 min), and compared this viability to epidermoid carcinoma A431 and cutaneous melanoma A375 cell lines under the same conditions. The protocol used was based on previous work from the Bonnet group, and differed slightly from recommendations from McFarland et al.. […] The effective concentration (EC50) values, i.e., the concentration required to reduce cell viability by 50% compared to untreated wells, were assessed by fitting the dose-response curves with a Hill equation. The phototoxicity index (PI), defined as the ratio of the dark EC50 to the light EC50, was also calculated and represents the amplification of TLD1433 activity with a light trigger. […]
Figure 2 Cell viability after TLD1433 treatment of eight tumour cell lines (CRMM1, CRMM2, CM2005.1, OMM1, OMM2.5, MEL270, A431, A375). […] The absorbance of Sulforhodamine B in solution was measured at 520 nm. […]
At day 0, cells were detached using 1mL of trypsin, resuspended in 4 mL of media and transferred to a 15 mL corning falcon tube. Cells were counted using trypan blue and BioRad® TC20™ automated cell counter (Figure 11). Dilutions of 6000 (CRMM1), 6000 (CRMM2), 8000 (CM2005.1), 6000 (OMM1), 6000 (OMM2.5), 6000 (MEL270) 8000 (A431), and 4000 (A375) cells/well were calculated from each cell suspension at a final volume of 6 mL using the following formula: Vc=(Vt×10C)/Lc where Vt = total volume of solution, C = number of cells per well/per 100 μL and Lc = live cells count (cells/mL). […] Next day, the dye was dissolved using Tri-base (0.25%) and absorbance of SRB at 510 nm was recorded from each well using a Tecan plate reader. […]

SMILES: Cc1ccnc(-c2cc(C)ccn2)c1.Cc1ccnc(-c2cc(C)ccn2)c1.[Cl-].[Cl-].[Ru+2].c1csc(-c2ccc(-c3ccc(-c4nc5c6cccnc6c6ncccc6c5[nH]4)s3)s2)c1 [TLD1433]
- Maximum Tolerated Dose (MTD) ([1]; Intravenous 1 nL): 2.3 mM
- Maximum Tolerated Dose (MTD) ([1]; Retro-orbital 1 nL): 2.3 mM
- Maximum Tolerated Dose (MTD) ([1]; Water administration): 4.6e-06 mM
- EC50 ([2]; MEL270, dark, 24 h treatment, SRB, read-out: EC50, dark): 1100 nM
- EC50 ([2]; MEL270, green light 520 nm, 15 min, 21 mW/cm^2, 19 J.cm^−2, DLI 24 h, read-out: EC50,light): 10 nM
- PI (photo index) ([2]; MEL270, ratio of dark and light EC50, 19 J.cm^−2 green light): 110

Source: publication PMC7139549, “TLD1433 Photosensitizer Inhibits Conjunctival Melanoma Cells in Zebrafish Ectopic and Orthotopic Tumour Models” (Cancers, 2020)
